# In US20150105252A1, “SUBSTITUTED PYRAZOLES AS HERBICIDES” (E I DU PONT DE NEMOURS AND COMPANY, priority 2013, published 2015):
# What was measured:
# nutsedge, yellow = test: Test C postemergence; type: in vivo, Cyperus esculentus; conditions: for Plant response rating (scale of 0 to 100 where 0 is no effect and 100 is complete control), Nutsedge, Yellow: Postemergence, 31 g ai/ha, visually evaluated after 13 to 15 days; for Nutsedge, Yellow plant response rating / Plant response rating, Nutsedge, Yellow: postemergence; for Nutsedge, Yellow plant response rating: 62 g ai/ha, scale 0 to 100
# In short: (§1)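 In this greenhouse assay, seeded soil (loam plus sand) or emerged seedlings in peat-vermiculite medium were treated with formulated compound. Roughly two weeks later (13–15 days), each species was scored visually relative to controls, from 0 for no effect to 100 for complete control.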
# lambsquarters [1] = test: Test C preemergence; type: in vivo, Chenopodium album
# In short: as §1
# pigweed = test: Test C postemergence; type: in vivo, Amaranthus retroflexus; conditions: for Pigweed plant response rating / Plant response rating, Pigweed: postemergence; for Pigweed plant response rating: 62 g ai/ha, scale 0 to 100
# In short: as §1
# foxtail, giant = test: Test C postemergence; type: in vivo, Setaria faberii; conditions: for Plant response rating (scale of 0 to 100 where 0 is no effect and 100 is complete control), Foxtail, Giant: Postemergence, 31 g ai/ha, visually evaluated after 13 to 15 days; for Foxtail, Giant plant response rating / Plant response rating, Foxtail, Giant: postemergence; for Foxtail, Giant plant response rating: 62 g ai/ha, scale 0 to 100
# In short: as §1
# kochia = test: Test C postemergence; type: in vivo, Kochia scoparia; conditions: for Plant response rating (scale of 0 to 100 where 0 is no effect and 100 is complete control), Kochia: Postemergence, 31 g ai/ha, visually evaluated after 13 to 15 days; for Kochia plant response rating / Plant response rating, Kochia: postemergence; for Kochia plant response rating: 62 g ai/ha, scale 0 to 100
# In short: as §1
# waterhemp = test: Test C postemergence; type: in vivo, Amaranthus rudis; conditions: for Waterhemp plant response rating / Plant response rating, Waterhemp: postemergence; for Waterhemp plant response rating: scale 0 to 100
# In short: as §1
# galium = test: Test C postemergence; type: in vivo, Galium aparine; conditions: for Plant response rating (scale of 0 to 100 where 0 is no effect and 100 is complete control), Galium: Postemergence, 31 g ai/ha, visually evaluated after 13 to 15 days; for Galium plant response rating / Plant response rating, Galium: postemergence; for Galium plant response rating: 62 g ai/ha, scale 0 to 100
# In short: as §1
# velvetleaf = test: Test C postemergence; type: in vivo, Abutilon theophrasti; conditions: for Velvetleaf plant response rating / Plant response rating, Velvetleaf: postemergence; for Velvetleaf plant response rating: scale 0 to 100
# In short: as §1
# chickweed = test: Test C postemergence; type: in vivo, Stellaria media; conditions: for Plant response rating (scale of 0 to 100 where 0 is no effect and 100 is complete control), Chickweed: Postemergence, 31 g ai/ha, visually evaluated after 13 to 15 days; for Chickweed plant response rating / Plant response rating, Chickweed: postemergence; for Chickweed plant response rating: 62 g ai/ha, scale 0 to 100
# In short: as §1
# oat, wild = test: Test C postemergence; type: in vivo, Avena fatua; conditions: for Plant response rating (scale of 0 to 100 where 0 is no effect and 100 is complete control), Oat, Wild: Postemergence, 31 g ai/ha, visually evaluated after 13 to 15 days; for Oat, Wild plant response rating / Plant response rating, Oat, Wild: postemergence; for Oat, Wild plant response rating: 62 g ai/ha, scale 0 to 100
# In short: as §1
# soybean = test: Test C postemergence; type: in vivo, Glycine max; conditions: for Soybean plant response rating / Plant response rating, Soybean: postemergence
# In short: as §1
# barnyardgrass = test: Test C postemergence; type: in vivo, Echinochloa crus-galli; conditions: for Plant response rating (scale of 0 to 100 where 0 is no effect and 100 is complete control), Barnyardgrass: Postemergence, 31 g ai/ha, visually evaluated after 13 to 15 days; for Barnyardgrass plant response rating / Plant response rating, Barnyardgrass: postemergence; for Barnyardgrass plant response rating: 62 g ai/ha, scale 0 to 100
# In short: as §1
# ragweed = test: Test C postemergence; type: in vivo, Ambrosia elation
# In short: as §1
# morningglory = test: Test C postemergence; type: in vivo, Ipomoea coccinea; conditions: for Plant response rating (scale of 0 to 100 where 0 is no effect and 100 is complete control), Morningglory: Postemergence, 31 g ai/ha, visually evaluated after 13 to 15 days; for Morningglory plant response rating / Plant response rating, Morningglory: postemergence; for Morningglory plant response rating: 62 g ai/ha, scale 0 to 100
# In short: as §1
# ryegrass, Italian = test: Test C postemergence; type: in vivo, Lolium multiflorum
# In short: as §1
# lambsquarters [2] = test: Test C postemergence; type: in vivo, Chenopodium album; conditions: for Plant response rating (scale of 0 to 100 where 0 is no effect and 100 is complete control), Lambsquarters: Postemergence, 31 g ai/ha, visually evaluated after 13 to 15 days; for Lambsquarters plant response rating / Plant response rating, Lambsquarters: postemergence; for Lambsquarters plant response rating: 62 g ai/ha, scale 0 to 100
# In short: as §1
# [3] = 250 g ai/ha, scale 0 to 100 (0 no effect, 100 complete control)
# [4] = 125 g ai/ha, scale 0 to 100, 0 no effect, 100 complete control
# [5] = Postemergence, 31 g ai/ha, visually evaluated after 13 to 15 days
# [6] = postemergence, 62 g ai/ha, scale 0 to 100
# [7] = postemergence, 250 g ai/ha, scale 0 to 100 (0 no effect, 100 complete control)
# [8] = postemergence, 125 g ai/ha, scale 0 to 100, 0 no effect, 100 complete control
smiles,measurement,setting,value
CCc1cc(C(=O)NC2CC2)nn1Cc1ccnc(OC(F)F)c1 [Compound 98],"Plant response rating (scale of 0 to 100 where 0 is no effect and 100 is complete control), Nutsedge, Yellow","nutsedge, yellow",0
same,"Nutsedge, Yellow plant response rating","nutsedge, yellow",5
same,"Plant response rating, Nutsedge, Yellow","nutsedge, yellow; [3]",5
same,"Plant response rating, Nutsedge, Yellow","nutsedge, yellow; [4]",5
same,"Plant response rating (scale of 0 to 100), Lambsquarters","lambsquarters [1]; Preemergence, 250 g ai/ha",100
same,Lambsquarters plant response rating,"lambsquarters [1]; preemergence, 31 g ai/ha, visual rating, scale 0 to 100 (0 no effect, 100 complete control), 13 to 15 days",100
same,"Plant response rating, Lambsquarters","lambsquarters [1]; preemergence, 62 g ai/ha, 13 to 15 days, scale 0 to 100, 0 = no effect, 100 = complete control",100
same,Lambsquarters plant response rating,"lambsquarters [1]; preemergence, 125 g ai/ha, scale 0 to 100, 0 is no effect, 100 is complete control",100
same,"Plant response rating (scale of 0 to 100 where 0 is no effect and 100 is complete control), Pigweed",pigweed; [5],10
same,Pigweed plant response rating,pigweed,10
same,"Plant response rating, Pigweed",pigweed; [3],90
same,"Plant response rating, Pigweed",pigweed; [4],30
same,"Plant response rating (scale of 0 to 100 where 0 is no effect and 100 is complete control), Foxtail, Giant","foxtail, giant",45
same,"Foxtail, Giant plant response rating","foxtail, giant",50
same,"Plant response rating, Foxtail, Giant","foxtail, giant; [3]",85
same,"Plant response rating, Foxtail, Giant","foxtail, giant; [4]",55
same,"Plant response rating (scale of 0 to 100 where 0 is no effect and 100 is complete control), Kochia",kochia,40
same,Kochia plant response rating,kochia,75
same,"Plant response rating, Kochia",kochia; [3],85
same,"Plant response rating, Kochia",kochia; [4],85
same,"Plant response rating (scale of 0 to 100 where 0 is no effect and 100 is complete control), Waterhemp",waterhemp; [5],10
same,Waterhemp plant response rating,waterhemp; 62 g ai/ha,45
same,"Plant response rating, Waterhemp",waterhemp; [3],90
same,"Plant response rating, Waterhemp",waterhemp; [4],85
same,"Plant response rating (scale of 0 to 100 where 0 is no effect and 100 is complete control), Galium",galium,50
same,Galium plant response rating,galium,55
same,"Plant response rating, Galium",galium; [3],90
same,"Plant response rating, Galium",galium; [4],65
same,"Plant response rating (scale of 0 to 100 where 0 is no effect and 100 is complete control), Velvetleaf",velvetleaf; [5],15
same,Velvetleaf plant response rating,velvetleaf; 62 g ai/ha,20
same,"Plant response rating, Velvetleaf",velvetleaf; [3],50
same,"Plant response rating, Velvetleaf",velvetleaf; [4],20
same,"Plant response rating (scale of 0 to 100 where 0 is no effect and 100 is complete control), Chickweed",chickweed,100
same,Chickweed plant response rating,chickweed,100
same,"Plant response rating, Chickweed",chickweed; [3],100
same,"Plant response rating, Chickweed",chickweed; [4],100
same,"Plant response rating (scale of 0 to 100 where 0 is no effect and 100 is complete control), Oat, Wild","oat, wild",5
same,"Oat, Wild plant response rating","oat, wild",5
same,"Plant response rating, Oat, Wild","oat, wild; [3]",25
same,"Plant response rating, Oat, Wild","oat, wild; [4]",10
same,"Plant response rating (scale of 0 to 100 where 0 is no effect and 100 is complete control), Soybean",soybean; [5],70
same,Soybean plant response rating,"soybean; 62 g ai/ha, scale 0 to 100",70
same,"Plant response rating, Soybean",soybean; [3],85
same,"Plant response rating, Soybean",soybean; [4],85
same,"Plant response rating (scale of 0 to 100 where 0 is no effect and 100 is complete control), Barnyardgrass",barnyardgrass,0
same,Barnyardgrass plant response rating,barnyardgrass,0
same,"Plant response rating, Barnyardgrass",barnyardgrass; [3],35
same,"Plant response rating, Barnyardgrass",barnyardgrass; [4],5
same,"Plant response rating (scale of 0 to 100 where 0 is no effect and 100 is complete control), Ragweed",ragweed; [5],15
same,Ragweed plant response rating,ragweed; [6],35
same,"Plant response rating, Ragweed",ragweed; [7],75
same,"Plant response rating, Ragweed",ragweed; [8],75
same,"Plant response rating (scale of 0 to 100 where 0 is no effect and 100 is complete control), Morningglory",morningglory,45
same,Morningglory plant response rating,morningglory,50
same,"Plant response rating, Morningglory",morningglory; [3],90
same,"Plant response rating, Morningglory",morningglory; [4],70
same,"Plant response rating (scale of 0 to 100 where 0 is no effect and 100 is complete control), Ryegrass, Italian","ryegrass, Italian; [5]",5
same,"Ryegrass, Italian plant response rating","ryegrass, Italian; [6]",10
same,"Plant response rating, Ryegrass, Italian","ryegrass, Italian; [7]",10
same,"Plant response rating, Ryegrass, Italian","ryegrass, Italian; [8]",10
same,"Plant response rating (scale of 0 to 100 where 0 is no effect and 100 is complete control), Lambsquarters",lambsquarters [2],60
same,Lambsquarters plant response rating,lambsquarters [2],70
same,"Plant response rating, Lambsquarters",lambsquarters [2]; [3],95
same,"Plant response rating, Lambsquarters",lambsquarters [2]; [4],90
CCc1cc(C(=O)NCC(F)(F)F)nn1Cc1cc(OC(F)F)nn1C [Compound 206],"Plant response rating (scale of 0 to 100 where 0 is no effect and 100 is complete control), Nutsedge, Yellow","nutsedge, yellow",0
same,"Nutsedge, Yellow plant response rating","nutsedge, yellow",0
same,"Plant response rating, Nutsedge, Yellow","nutsedge, yellow; [3]",0
same,"Plant response rating, Nutsedge, Yellow","nutsedge, yellow; [4]",0
same,Pigweed plant response rating,pigweed,25
same,"Plant response rating, Pigweed",pigweed; [3],40
same,"Plant response rating, Pigweed",pigweed; [4],40
same,"Plant response rating (scale of 0 to 100 where 0 is no effect and 100 is complete control), Foxtail, Giant","foxtail, giant",15
same,"Foxtail, Giant plant response rating","foxtail, giant",5
same,"Plant response rating, Foxtail, Giant","foxtail, giant; [3]",5
same,"Plant response rating, Foxtail, Giant","foxtail, giant; [4]",5
same,"Plant response rating (scale of 0 to 100 where 0 is no effect and 100 is complete control), Kochia",kochia,30
same,Kochia plant response rating,kochia,35
same,"Plant response rating, Kochia",kochia; [3],75
same,"Plant response rating, Kochia",kochia; [4],45
same,"Plant response rating, Waterhemp",waterhemp; [3],45
same,Waterhemp plant response rating,waterhemp,35
same,"Plant response rating (scale of 0 to 100 where 0 is no effect and 100 is complete control), Galium",galium,30
same,Galium plant response rating,galium,30
same,"Plant response rating, Galium",galium; [3],45
same,"Plant response rating, Galium",galium; [4],60
same,"Plant response rating, Velvetleaf",velvetleaf; [3],10
same,Velvetleaf plant response rating,velvetleaf,10
same,"Plant response rating (scale of 0 to 100 where 0 is no effect and 100 is complete control), Chickweed",chickweed,5
same,Chickweed plant response rating,chickweed,5
same,"Plant response rating, Chickweed",chickweed; [3],75
same,"Plant response rating, Chickweed",chickweed; [4],5
same,"Plant response rating (scale of 0 to 100 where 0 is no effect and 100 is complete control), Oat, Wild","oat, wild",0
same,"Oat, Wild plant response rating","oat, wild",0
same,"Plant response rating, Oat, Wild","oat, wild; [3]",5
same,"Plant response rating, Oat, Wild","oat, wild; [4]",5
same,"Plant response rating, Soybean",soybean; [3],35
same,Soybean plant response rating,soybean; [4],45
same,"Plant response rating (scale of 0 to 100 where 0 is no effect and 100 is complete control), Barnyardgrass",barnyardgrass,5
same,Barnyardgrass plant response rating,barnyardgrass,5
same,"Plant response rating, Barnyardgrass",barnyardgrass; [3],5
same,"Plant response rating, Barnyardgrass",barnyardgrass; [4],5
same,"Plant response rating, Ragweed",ragweed; [7],20
same,"Plant response rating, Ragweed",ragweed; [8],35
same,"Plant response rating (scale of 0 to 100 where 0 is no effect and 100 is complete control), Morningglory",morningglory,40
same,Morningglory plant response rating,morningglory,40
same,"Plant response rating, Morningglory",morningglory; [3],65
same,"Plant response rating, Morningglory",morningglory; [4],60
same,"Plant response rating, Ryegrass, Italian","ryegrass, Italian; [7]",0
same,"Plant response rating, Ryegrass, Italian","ryegrass, Italian; [8]",0
same,"Plant response rating (scale of 0 to 100 where 0 is no effect and 100 is complete control), Lambsquarters",lambsquarters [2],10
same,Lambsquarters plant response rating,lambsquarters [2],10
same,"Plant response rating, Lambsquarters",lambsquarters [2]; [3],30
same,"Plant response rating, Lambsquarters",lambsquarters [2]; [4],15
